The text below walks through data of patent US12600997B2, “Fermentative production of sialylated saccharides” (priority 2018, dated 2026).

Assay [1] has as its system SiaT9 (α-2,3-sialyltransferase). Nature of the assay: In vitro sialyltransferase activity assay with acceptor substrates, product detected by thin layer chromatography. It counts as biochemical, Vibrio sp. JT-FAJ-16. Set-up: key to Formation of sialylated reaction product, SiaT9: +: A sialylated reaction product was detectable.; −: A sialylated reaction product was not detectable. The conditions noted are these: TLC; for Formation of sialylated reaction product, SiaT9: E. coli protein extract, 10 mM CMP-Neu5Ac, 5 to 20 mM acceptor substrate, 16 hours; for Sialylation of acceptor substrate by SiaT9: in vitro assay, summary of Table 3. On the procedure:
(§1) The E. coli strains harboring the plasmids for siaT9 (α-2,3-sialyltransferase) and siaT18 (α-2,6-sialyltransferase) expression were grown at 30° C. in 100 ml shake flasks filled with 20 ml of 2YT medium supplemented with ampicillin 100 μg ml^−1. When the cultures reached an OD600 of 0.1 to 0.3, gene expression was induced by addition of 0.3 mM IPTG and the incubation was continued for 12 to 16 hours. Cells were harvested by centrifugation and mechanically disrupted in a defined volume of 50 mM Tris-HCl pH7.5 using glass beads. The protein extract was kept on ice until the assay started. The in vitro assay was carried out in a total volume of 25 μl including 50 mM Tris-HCl PH7.5, 5 mM MgCl2, 10 mM CMP-Neu5Ac and 5 to 20 mM of the appropriate acceptor substrates. The assay started with the addition of 3 μl protein extract and continued for 16 hours. Formation of sialylated oligosaccharides resulting from the activity of the sialyltransferases was determined by thin layer chromatography.
(§2) Therefore, samples were applied on Silica Gel 60 F254 (Merck KGaA, Darmstadt, Germany)-plates. A mixture of butanol:acetone:acetic acid:H2O (35/35/7/23 (v/v/v/v)) was used as mobile phase. For detection of the separated substances, the TLC plate was soaked with thymol reagent (0.5 g thymol solved in 95 ml ethanol, 5 ml sulfuric acid added) and heated. Sialylated reaction products run slower than their acceptor substrates.
(§3) Table 3: In vitro analyses determining sialyltransferase activities of two exemplary sialyltransferases depending on the supplied acceptor substrate. The formation of sialylated saccharides was determined by thin layer chromatography. (+) A sialylated reaction product was detectable. (−) A sialylated reaction product was not detectable.

Assay [2] has as its system SiaT18 (α-2,6-sialyltransferase). The assay is described as above. It counts as biochemical, Photobacterium leiognathi JT-SHIZ-119. Further details: key to Formation of sialylated reaction product, SiaT18: +: A sialylated reaction product was detectable.; −: A sialylated reaction product was not detectable. The conditions noted are these: TLC; for Formation of sialylated reaction product, SiaT18: E. coli protein extract, 10 mM CMP-Neu5Ac, 5 to 20 mM acceptor substrate, 16 hours; for Sialylation of acceptor substrate by SiaT18: in vitro assay, summary of Table 3. On the procedure:
as §1, §2, §3

SMILES strings stand for the structures.

Regarding `CC(=O)N[C@H]1[C@H](O[C@H]2[C@@H](O)[C@@H](CO)O[C@@H](O[C@H]3[C@H](O)[C@@H](O)C(O)O[C@@H]3CO)[C@@H]2O)O[C@H](CO)[C@@H](O)[C@@H]1O[C@@H]1O[C@H](CO)[C@H](O)[C@H](O)[C@H]1O` (stereo partly drawn) [Lacto-N-tetraose], the “Formation of sialylated reaction product, SiaT9” value (“Formation … SiaT9” below) in assay [1] is “+”. Besides, in assay [2], the “Formation of sialylated reaction product, SiaT18” value (from here on “Formation … SiaT18”) is given as “+”.
`O=C[C@H](O)[C@@H](O)[C@@H](O)[C@H](O)CO` [Galactose]: in assay [1], the “Formation … SiaT9” value is on record as “+” and the “Sialylation of acceptor substrate by SiaT9” value is listed as “capable to sialylate”. In assay [2], the “Formation … SiaT18” value is “+” and the “Sialylation of acceptor substrate by SiaT18” value is recorded as “capable to sialylate”.
Consider `OC[C@H]1O[C@@](CO)(O[C@H]2O[C@H](CO)[C@@H](O)[C@H](O)[C@H]2O)[C@@H](O)[C@@H]1O` [Sucrose], for which, in assay [1], the “Formation … SiaT9” value is listed as “−” and the “Sialylation of acceptor substrate by SiaT9” value was “No sialylated oligosaccharide was detectable”. Also, in assay [2], the “Formation … SiaT18” value was “−” and the “Sialylation of acceptor substrate by SiaT18” value is “No sialylated oligosaccharide was detectable”.
Turning to `OC[C@H]1O[C@@H](O[C@H]2[C@H](O)[C@@H](O)C(O)O[C@@H]2CO)[C@H](O)[C@@H](O)[C@H]1O` (stereo partly drawn) [Lactose], the “Formation … SiaT9” value in assay [1] is listed as “+”. The “Formation … SiaT18” value in assay [2] is recorded as “+”.
